The values below are quoted from earlier work in US20200254068A1, “METHODS FOR TREATING TRAUMATIC BRAIN INJURY” (LOMA LINDA UNIVERSITY, priority 2017, published 2020).

The conditions of the series: given acutely, goal of reducing cerebral edema.

Consider `CC(=O)[C@H]1CC[C@H]2[C@@H]3CCC4=CC(=O)CC[C@]4(C)[C@H]3CC[C@]12C` [progesterone], for which the “outcome in clinical TBI trials” value is on record as “unsuccessful”.
In the case of `C[C@@H]1C[C@H]2[C@@H]3CCC4=CC(=O)C=C[C@]4(C)[C@@]3(F)[C@@H](O)C[C@]2(C)[C@@]1(O)C(=O)CO` [dexamethasone], the “mortality rate in clinical TBI trials” value is on record as “increase the mortality rate”.
